The values below come from US9604996B2 (Bayer Pharma Aktiengesellschaft, priority 2013, dated 2017).

The test system of assay [1] is IL-6 release by human fibroblast cell line LL29. Briefly: NECA-induced IL-6 release by LL29 fibroblasts (ELISA). The class given is cell-based. The conditions noted are these: NECA 10 μM, 24 hours incubation, IL-6 ELISA of supernatant, in some cases means, rounded to two significant digits. The protocol: B-2. Measurement of NECA-Induced IL-6 Release by LL29 Fibroblasts
Stimulation of fibroblasts with adenosine or the adenosine analog 5′-N-ethylcarboxamidoadenosine (NECA) leads to release of the pro-inflammatory and pro-fibrotic cytokine IL-6 which can be prevented by inhibition of the A2b receptor.
Accordingly, confluent cells of the human fibroblast cell line LL29 were treated with the test substances and stimulated with NECA (10 μM). After an incubation time of 24 hours, the cell supernatant is removed and human IL-6 in the cell supernatant is determined by ELISA (Quantikine® IL6 ELISA, R&D Systems, Minneapolis, USA).

Assay [2] has as its target T1, human adenosine A2b receptor (Homo sapiens, UniProt P29275).
T1 construct: expressed in transfected cells; host or cells: CHO-K1 (Chinese Hamster Ovary) with CRE-luciferase reporter
T1 sequence (P29275 1-332): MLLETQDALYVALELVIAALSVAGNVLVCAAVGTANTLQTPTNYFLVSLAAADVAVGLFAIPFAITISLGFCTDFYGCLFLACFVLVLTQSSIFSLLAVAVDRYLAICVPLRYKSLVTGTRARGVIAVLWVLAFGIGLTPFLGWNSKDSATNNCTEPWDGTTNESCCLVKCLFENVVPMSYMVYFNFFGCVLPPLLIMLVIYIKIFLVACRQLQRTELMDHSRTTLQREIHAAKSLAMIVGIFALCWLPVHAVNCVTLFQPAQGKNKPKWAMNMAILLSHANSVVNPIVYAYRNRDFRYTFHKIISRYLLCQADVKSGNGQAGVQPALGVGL
The assay can be described thus: Cellular reporter gene (CRE-luciferase) A2b receptor antagonist assay in recombinant CHO-K1 cells stimulated with NECA. Type of assay: cell-based. The conditions noted are these: recombinant CHO-K1 cell line, co-incubation with EC50 concentration of NECA, 3 hours, in some cases means, rounded to two significant digits. In a few lines:
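CHO-K1 cells expressing human A2b receptor with a CRE-driven firefly luciferase reporter, co-incubated with test compound and NECA at its same-day EC50 concentration. Luminescence read 3 hours after NECA addition.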

Molecules are shown by their SMILES.

Turning to `Cc1c(C(=O)N2CCNC(=O)C2)sc2c1c(=O)n(CCc1ccccc1Cl)c(=O)n2CCC(F)(F)F` [Example 31, 3-[2-(2-Chlorophenyl)ethyl]-5-methyl-6-[(3-oxopiperazin-1-yl)carbonyl]-1-(3,3,3-trifluoropropyl)thieno[2,3-d]pyrimidine-2,4(1H,3H)-dione], the IC50 in assay [1] and in assay [2] was 16 nM each time.

For `CCn1c(=O)c2c(C)c(C(=O)N3CCC(O)CC3)sc2n(CCC(F)(F)F)c1=O` [Example 18, 3-Ethyl-6-[(4-hydroxypiperidin-1-yl)carbonyl]-5-methyl-1-(3,3,3-trifluoropropyl)thieno[2,3-d]pyrimidine-2,4(1H,3H)-dione], the 50% inhibitory concentration (IC50) in assay [1] is 170 nM; in assay [2], 57 nM.

Turning to `CCc1c(C(=O)N2CCC(C)(O)CC2)sc2c1c(=O)n(CC)c(=O)n2CCC(F)(F)F` [Example 88, 3,5-Diethyl-6-[(4-hydroxy-4-methylpiperidin-1-yl)carbonyl]-1-(3,3,3-trifluoropropyl)thieno[2,3-d]pyrimidine-2,4(1H,3H)-dione], the half-inhibitory concentration (IC50) worked out at 9 nM in assay [1] and 8.7 nM in assay [2].

For `Cc1c(C(=O)N2CCNC(=O)C2)sc2c1c(=O)n(CCc1ccccc1)c(=O)n2CCC(F)(F)F` [Example 26, 5-Methyl-6-[(3-oxopiperazin-1-yl)carbonyl]-3-(2-phenylethyl)-1-(3,3,3-trifluoropropyl)thieno[2,3-d]pyrimidine-2,4(1H,3H)-dione], the results for the 50% inhibitory concentration (IC50) in assay [1] and in assay [2] were 53 nM and 17 nM, respectively.

Consider `CCn1c(=O)c2c(C)c(C(=O)N3CCC(O)(CO)CC3)sc2n(CCC(F)(F)F)c1=O` [Example 74, 3-Ethyl-6-{[4-hydroxy-4-(hydroxymethyl)piperidin-1-yl]carbonyl}-5-methyl-1-(3,3,3-trifluoropropyl)thieno[2,3-d]pyrimidine-2,4(1H,3H)-dione], for which the IC50 in assay [1] stood at 250 nM; in assay [2] it was 110 nM.

In the case of `Cc1c(C(=O)N2CCC(O)CC2)sc2c1c(=O)n(CCc1ccccc1Cl)c(=O)n2CCC(F)(F)F` [Example 6, 3-[2-(2-Chlorophenyl)ethyl]-6-[(4-hydroxypiperidin-1-yl)carbonyl]-5-methyl-1-(3,3,3-trifluoropropyl)thieno [2,3-d]pyrimidine-2,4(1H,3H)-dione], the IC50 is 27 nM in assay [1] and 13 nM in assay [2].

For `O=C(c1sc2c(c1C(F)(F)F)c(=O)n(CCc1ccccc1)c(=O)n2CCC(F)(F)F)N1CCC(O)CC1` [Example 24, 6-[(4-Hydroxypiperidin-1-yl)carbonyl]-3-(2-phenylethyl)-5-(trifluoromethyl)-1-(3,3,3-trifluoropropyl)thieno[2,3-d]pyrimidine-2,4(1H,3H)-dione], the half-inhibitory concentration (IC50) in assay [1] stood at 10 nM; in assay [2], 13 nM.

As for `Cc1c(C(=O)N2CCNC(=O)C2)sc2c1c(=O)n(CCc1ccccc1F)c(=O)n2CCC(F)(F)F` [Example 29, 3-[2-(2-Fluorophenyl)ethyl]-5-methyl-6-[(3-oxopiperazin-1-yl)carbonyl]-1-(3,3,3-trifluoropropyl)thieno[2,3-d]pyrimidine-2,4(1H,3H)-dione], the IC50 in assay [1] worked out at 23 nM; in assay [2], 21 nM.

As for `Cc1c(C(=O)N2CCC(O)CC2)sc2c1c(=O)n(CCc1ccccc1)c(=O)n2CCC=C(F)F` [Example 2, 1-(4,4-Difluorobut-3-en-1-yl)-6-[(4-hydroxypiperidin-1-yl)carbonyl]-5-methyl-3-(2-phenylethyl)thieno[2,3-d]pyrimidine-2,4(1H,3H)-dione], the IC50 in assay [1] came out at 53 nM; in assay [2], 44 nM.

With `CCn1c(=O)c2c(C)c(C(=O)N3CC4CCCC(C3)C4O)sc2n(CCC(F)(F)F)c1=O` (stereo not drawn) [Example 72, 3-Ethyl-6-[(9-hydroxy-3-azabicyclo[3.3.1]non-3-yl)carbonyl]-5-methyl-1-(3,3,3-trifluoropropyl)thieno[2,3-d]pyrimidine-2,4(1H,3H)-dione (α-epimer)], in assay [2], the IC50 was found to be 17 nM.
